{"source": "patent US9271971B2", "about": "“Pyrido[3,4-B]indoles and methods of use” (Medivation Technologies, Inc., priority 2009, dated 2016)", "key": {"[1]": {"target": "T1, human recombinant serotonin (5-Hydroxytryptamine) 5-HT6 receptor (Homo sapiens, UniProt P50406)", "T1 construct": "expressed in transfected cells; host or cells: human HeLa cells", "T1 sequence (P50406 whole entry)": "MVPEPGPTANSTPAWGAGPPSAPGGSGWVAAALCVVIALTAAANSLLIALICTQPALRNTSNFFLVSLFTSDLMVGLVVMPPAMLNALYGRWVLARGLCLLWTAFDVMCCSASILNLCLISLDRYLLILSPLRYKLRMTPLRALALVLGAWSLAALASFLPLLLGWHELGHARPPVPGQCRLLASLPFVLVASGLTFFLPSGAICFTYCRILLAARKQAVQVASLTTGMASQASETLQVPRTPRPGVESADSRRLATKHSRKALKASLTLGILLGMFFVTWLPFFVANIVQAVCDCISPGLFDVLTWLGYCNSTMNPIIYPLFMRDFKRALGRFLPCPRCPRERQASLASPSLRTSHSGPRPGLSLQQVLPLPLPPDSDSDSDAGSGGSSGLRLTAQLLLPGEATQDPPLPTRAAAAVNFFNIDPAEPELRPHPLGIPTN", "experiment": "Serotonin 5-HT6 radioligand binding assay", "conditions": "[3H]LSD specific binding, read-out: Percent Inhibition of ligand binding, Serotonin (1 μM ligand concentration) 5-HT6", "procedure": "To evaluate in radioligand binding assays the activity of compounds of the invention, human recombinant serotonin (5-Hydroxytryptamine) 5-HT6 receptor expressed in human HeLa cells [Monsma, F. J. Jr et al., Mol. Pharmacol. (1993), 43:320] in a modified Tris-HCl buffer (50 mM Tris-HCl, pH 7.4, 150 mM NaCl, 2 mM Ascorbic Acid, 0.001% BSA) was used. Compounds of the invention were incubated with 1.5 nM [3H]Lysergic acid diethylamide (LSD) for 120 min. at 37° C. Non-specific binding was estimated in the presence of 5 μM Serotonin (5-HT). Receptor proteins were filtered and washed, the filters were then counted to determine[3H]LSD specifically bound. Compounds were screened at 1 μM or lower, using 1% DMSO as vehicle. Biochemical assay results are presented as the percent inhibition of specific binding in Table 4."}, "[2]": {"target": "T2, human recombinant adrenergic α2B receptor (Homo sapiens, UniProt P18089)", "T2 construct": "expressed in transfected cells; host or cells: Chinese hamster ovary (CHO-K1) cells", "T2 sequence (P18089 1-450)": "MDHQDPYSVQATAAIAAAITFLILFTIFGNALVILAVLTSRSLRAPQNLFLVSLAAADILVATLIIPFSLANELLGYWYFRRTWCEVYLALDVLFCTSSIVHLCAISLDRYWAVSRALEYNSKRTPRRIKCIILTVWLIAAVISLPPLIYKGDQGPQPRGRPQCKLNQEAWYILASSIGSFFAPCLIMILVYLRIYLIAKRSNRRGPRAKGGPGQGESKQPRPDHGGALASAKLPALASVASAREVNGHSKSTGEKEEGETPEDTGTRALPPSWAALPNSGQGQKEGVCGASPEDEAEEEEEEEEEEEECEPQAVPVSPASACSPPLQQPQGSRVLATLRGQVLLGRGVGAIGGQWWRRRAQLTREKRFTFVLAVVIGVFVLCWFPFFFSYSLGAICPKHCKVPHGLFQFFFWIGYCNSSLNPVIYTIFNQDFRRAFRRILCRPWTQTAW", "experiment": "Adrenergic α2B radioligand binding assay", "conditions": "1 μM; [3H]Rauwolscine specific binding; read-out: Percent Inhibition of ligand binding, Adrenergic (1 μM ligand conc.) α2B", "procedure": "To evaluate in radioligand binding assays the activity of compounds of the invention, human recombinant adrenergic α2B receptor expressed in Chinese hamster ovary (CHO-K1) cells [Uhlen, S et al., Eur J Pharmacol. (1998), 343(1):93] in a modified Tris-HCl buffer (50 mM Tris-HCl, pH 7.4, 12.5 mM MgCl2, 1 mM EDTA, 0.2% BSA) was used. Compounds of the invention were incubated with 2.5 nM [^3H]Rauwolscine for 60 min. at 25° C. Non-specific binding was estimated in the presence of 10 μM Prozosin. Receptor proteins were filtered and washed, the filters were then counted to determine [^3H]Rauwolscine specifically bound. Compounds were screened at 1 μM or lower, using 1% DMSO as vehicle. Compounds of the invention were tested in this biochemical assay. Biochemical assay results for representative compounds were presented as the percent inhibition of specific binding in Table 3."}, "[3]": {"target": "human recombinant dopamine D2L receptor (Homo sapiens, UniProt P14416)", "sequence (P14416 whole entry)": "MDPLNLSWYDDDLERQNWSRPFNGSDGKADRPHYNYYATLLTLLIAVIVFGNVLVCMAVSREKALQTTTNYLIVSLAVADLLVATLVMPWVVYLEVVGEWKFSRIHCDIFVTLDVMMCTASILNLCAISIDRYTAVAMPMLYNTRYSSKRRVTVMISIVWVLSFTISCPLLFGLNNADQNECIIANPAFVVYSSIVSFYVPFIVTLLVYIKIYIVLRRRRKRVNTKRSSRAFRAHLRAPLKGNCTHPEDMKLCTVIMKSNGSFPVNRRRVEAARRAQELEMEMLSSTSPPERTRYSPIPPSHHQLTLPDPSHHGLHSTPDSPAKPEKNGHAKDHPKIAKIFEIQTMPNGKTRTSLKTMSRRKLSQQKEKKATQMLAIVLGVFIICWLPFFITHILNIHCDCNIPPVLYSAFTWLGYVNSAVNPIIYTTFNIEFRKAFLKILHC", "experiment": "Dopamine D2L radioligand binding assay", "conditions": "[3H]Spiperone specific binding, read-out: Percent Inhibition of ligand binding, Dopamine (1 μM ligand conc.) D2L", "procedure": "To evaluate in radioligand binding assays the activity of compounds of the invention, human recombinant dopamine D2L receptor expressed in Chinese hamster ovary (CHO) cells [Grandy, D. K. et al. Proc. Natl. Acad. Sci. USA. (1989), 86:9762; Hayes, G. et al., Mol. Endocrinol. (1992), 6:920] in a modified Tris-HCl buffer (50 mM Tris-HCl, pH 7.4, 1.4 mM Ascorbic Acid, 0.001% BSA, 150 mM NaCl) was used. Compounds of the invention were incubated with 0.16 nM [^3H]Spiperone for 120 min. at 25° C. Non-specific binding was estimated in the presence of 10 μM Haloperidol. Receptor proteins were filtered and washed, the filters were then counted to determine [^3H]Spiperone specifically bound. Compounds were screened at 1 μM or lower, using 1% DMSO as vehicle. Biochemical assay results are presented as the percent inhibition of specific binding in Table 3."}, "[4]": {"target": "T3, human recombinant histamine H2 receptor (Homo sapiens, UniProt P25021)", "T3 construct": "expressed in transfected cells; host or cells: Chinese hamster ovary (CHO) K1 cells", "T3 sequence (P25021 whole entry)": "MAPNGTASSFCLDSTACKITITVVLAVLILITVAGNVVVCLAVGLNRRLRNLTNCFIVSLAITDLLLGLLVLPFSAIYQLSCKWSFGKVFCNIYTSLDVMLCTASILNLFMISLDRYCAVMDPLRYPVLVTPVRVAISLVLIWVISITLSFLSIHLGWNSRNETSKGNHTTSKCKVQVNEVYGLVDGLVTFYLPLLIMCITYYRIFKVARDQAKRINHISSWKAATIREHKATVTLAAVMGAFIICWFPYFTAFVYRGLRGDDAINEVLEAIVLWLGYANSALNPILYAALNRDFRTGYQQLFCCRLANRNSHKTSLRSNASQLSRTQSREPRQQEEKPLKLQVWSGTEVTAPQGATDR", "experiment": "Histamine H2 radioligand binding assay", "conditions": "[125I]Aminopotentidine specific binding, read-out: Percentage Inhibition, Histamine Binding (1 μM) H2", "procedure": "To evaluate in radioligand binding assays the activity of compounds of the invention, human recombinant histamine H2 receptor expressed in Chinese hamster ovary (CHO) K1 cells [Ruat, M., Proc. Natl. Acad. Sci. USA. (1990), 87(5):1658] in a 50 mM Phosphate buffer, pH 7.4 was used. Compounds of the invention were incubated with 0.1 nM [^125I]Aminopotentidine for 120 min. at 25° C. Non-specific binding was estimated in the presence of 3 μM Tiotidine. Receptor proteins were filtered and washed, the filters were then counted to determine [^125I]Aminopotentidine specifically bound. Compounds were screened at 1 μM or lower, using 1% DMSO as vehicle. Biochemical assay results are presented as the percent inhibition of specific binding in Table 2."}, "[5]": {"target": "human recombinant histamine H1 receptor (Homo sapiens, UniProt P35367)", "sequence (P35367 whole entry)": "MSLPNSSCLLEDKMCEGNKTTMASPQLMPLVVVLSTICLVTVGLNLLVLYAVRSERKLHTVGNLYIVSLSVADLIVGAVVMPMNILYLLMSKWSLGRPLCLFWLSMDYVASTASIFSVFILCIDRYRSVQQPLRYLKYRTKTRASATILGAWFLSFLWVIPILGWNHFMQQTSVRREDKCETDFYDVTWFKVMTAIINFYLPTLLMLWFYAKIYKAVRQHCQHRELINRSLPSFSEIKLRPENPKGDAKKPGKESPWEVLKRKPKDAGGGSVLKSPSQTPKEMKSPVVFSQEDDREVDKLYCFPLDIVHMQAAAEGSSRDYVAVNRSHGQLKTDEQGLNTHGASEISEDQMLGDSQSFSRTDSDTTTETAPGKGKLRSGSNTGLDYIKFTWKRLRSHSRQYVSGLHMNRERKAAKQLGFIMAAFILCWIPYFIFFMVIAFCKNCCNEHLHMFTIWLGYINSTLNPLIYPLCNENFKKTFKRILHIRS", "experiment": "Histamine H1 radioligand binding assay", "conditions": "[3H]Pyrilamine specific binding, read-out: Percentage Inhibition, Histamine Binding (1 μM) H1", "procedure": "To evaluate in radioligand binding assays the activity of compounds of the invention, human recombinant histamine H1 receptor expressed in Chinese hamster ovary (CHO) cells [De Backer, M. D. et al., Biochem. Biophys. Res. Comm. (1993), 197(3):1601] in a modified Tris-HCl buffer (50 mM Tris-HCl, pH 7.4, 2 mM MgCl2, 100 mM NaCl, 250 mM Sucrose) was used. Compounds of the invention were incubated with 1.2 nM [^3H]Pyrilamine for 180 min. at 25° C. Non-specific binding was estimated in the presence of 1 μM pyrilamine. Receptor proteins were filtered and washed, the filters were then counted to determine [^3H]Pyrilamine specifically bound. Compounds were screened at 1 μM or lower, using 1% DMSO as vehicle. Biochemical assay results are presented as the percent inhibition of specific binding in Table 2."}}}
{"smiles": "Cc1ccc2c(c1)c1c(n2CC(C)(O)c2ccc(F)cc2F)CN2CCC1C2", "note": "(centres unmarked) [Compound 17]", "values": [{"measurement": "inhibition at 1 µM", "setting": "[1]", "value": 9, "unit": "%"}, {"measurement": "inhibition at 1 µM", "setting": "[2]", "value": 90, "unit": "%"}, {"measurement": "inhibition at 1 µM", "setting": "[3]", "value": 5, "unit": "%"}, {"measurement": "inhibition at 1 µM", "setting": "[4]", "value": 4, "unit": "%"}, {"measurement": "inhibition at 1 µM", "setting": "[5]", "value": 16, "unit": "%"}]}
